Laboratory results from PMC4442108, “Preclinical Validation of the Heparin-Reactive Peptide p5+14 as a Molecular Imaging Agent for Visceral Amyloidosis” (Molecules, 2015).
Where no end group is shown, it is not given here. [ ]: non-standard residue; d: D form. Tyr(3-I) = N[C@@H](Cc1ccc(O)c(I)c1)C(=O)O

Molecular target: T1, AA amyloid (Mus musculus, UniProt P05367)
T1 construct: organs known to develop AA amyloid in this mouse model; from tissue; host or cells: live H2/IL-6 transgenic Balb/c mice; liver, spleen, heart, kidney, pancreas
T1 sequence (P05367 20-95 limits assumed): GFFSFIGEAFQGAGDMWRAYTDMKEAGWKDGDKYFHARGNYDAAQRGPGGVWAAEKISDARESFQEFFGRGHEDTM
Assay: Biodistribution, SPECT/CT and micro-autoradiography of 125I-p5+14 in mice with systemic AA amyloidosis
Format: in vivo, mouse (H2/IL-6 transgenic)
Description: Systemic visceral AA amyloidosis was induced in H2-Ld-huIL-6 Tg Balb/c transgenic mice that constitutively express the human interleukin-6 transgene by iv injection of 10 µg of purified, splenic AA amyloid (amyloid enhancing factor; AEF) in 100 µL of sterile phosphate-buffered saline (PBS). Peptide was evaluated in mice at 4–6 wk post AEF injection when amyloid load was significant.
For serial SPECT/CT imaging in cohorts (n = 3) of AA and healthy wild type (WT) mice, peptide p5+14 (100 µg) was radioiodinated with ~4 mCi of ^125I (Perkin Elmer, Waltham, MA, USA), using 20 µg chloramine T as the oxidizing agent. After quenching the reaction with 20 µg sodium metabisulfite, the radiolabeled peptide was diluted into 0.1% sterile gelatin in PBS and free radioiodide removed by size exclusion chromatography on a 5 mL PD10 (GE Healthcare) solid phase equilibrated with 0.1% gelatin/PBS. Fractions 0f 200 µL were collected and those containing the maximal radioactivity (indicative of ^125I-p5+14) were pooled, and the product’s radiochemical purity was established by SDS polyacrylamide gel electrophoresis (PAGE) analyzed by phosphor imaging (Cyclone Storage Phosphor System, Perkin Elmer, Shelton, CT, USA).
Imaging was performed as described. Briefly, WT or AA amyloid mice (n = 3) were injected with ~3 µg of ^125I-p5+14, 125 µCi (specific activity ~40 µCi/µg) in the lateral tail vein. After the appropriate uptake time (1, 4, 24, and 48 h), mice were euthanized by isoflurane inhalation overdose. […]
Samples of liver, spleen, pancreas, kidneys, small and large intestines, stomach and heart were harvested post mortem from every mouse undergoing imaging with ^125I-p5+14 [45]. A sample of each was placed into a tared, plastic vial, weighed and the ^125I radioactivity measured using an automated Wizard 3 gamma counter (1480 Wallac Gamma Counter, Perkin Elmer). The biodistribution data were expressed as % injected dose/g tissue (%ID/g). […]

125I-p5+14 retention in the spleen (mice deemed amyloid-free by Congo red histochemical staining (cohort n = 34)): > 3 %ID/g
whole-body retention half-life (mice with AA amyloidosis, iv ~3 µg 125I-p5+14, gamma counting up to 48 h pi, n = 3 per time point): > 48 h
Substance: GGG[Tyr(3-I)]SKAQKAQAKQAKQAQKAQKAQAKQAKQAQKAQKAQAKQAKQ [125I-p5+14]
micro-autoradiographic distribution of radiolabeled peptide in tissues (AA mice, 1 h pi, 6 µm tissue sections compared with Congo red): co-localized with amyloid in diseased tissues
